Measured values taken from ChEMBL document CHEMBL3400090, “Benzofused hydroxamic acids: useful fragments for the preparation of histone deacetylase inhibitors. Part 2: 7-fluorobenzothiophenes and benzofurans” (Bioorg Med Chem Lett, 2015).

Assays:
[1] = Antiproliferative activity against human HCT116 cells after 5 days by Alamar Blue assay; format: functional, cell-based; conditions: HCT-116, 120 h
[2] = biological target: T1, Histone deacetylase (Rattus norvegicus) (UniProt Q6P6W3+Q99P99+Q99P96+Q4QQW4+Q99P97+Q5RJZ2+B1WBY8); conditions: at 0.01 µM
Description: Inhibition of isolated rat liver HDAC using substrate containing acetylated lysine side chain assessed as release of fluorophore at 0.01 uM by Fluor de Lys assay

[3] = biological target: T1, Histone deacetylase (Rattus norvegicus); conditions: at 0.1 µM
Description: Inhibition of isolated rat liver HDAC using substrate containing acetylated lysine side chain assessed as release of fluorophore at 0.1 uM by Fluor de Lys assay

Row | Structure (SMILES) | inhibition [2] [%] | inhibition [3] [%] | IC50 [1] [nM]
1 | O=C(NCc1ccc2cc(C(=O)NO)oc2c1)c1ccco1 | < 20 | 27 | –
2 | CN(C)CCCC(=O)Nc1ccc2oc(C(=O)NO)cc2c1 | < 20 | 26 | –
3 | O=C(NCc1ccc2oc(C(=O)NO)cc2c1)c1ccccc1 | < 20 | 49 | 690
4 | O=C(Cc1ccccc1)Nc1ccc2oc(C(=O)NO)cc2c1 | < 20 | 41 | 1700
5 | Cc1ncoc1C(=O)NCc1ccc2cc(C(=O)NO)sc2c1F | 20 | 61 | 210
6 | COc1ccc(CC(=O)Nc2ccc3oc(C(=O)NO)cc3c2)cc1 | < 20 | 42 | 2700
7 | COc1cccc(CC(=O)Nc2ccc3oc(C(=O)NO)cc3c2)c1 | < 20 | 32 | –
8 | O=C(NCc1ccc2oc(C(=O)NO)cc2c1)c1ccco1 | < 20 | 45 | 860
9 | CN(C)c1ccc(CC(=O)Nc2ccc3oc(C(=O)NO)cc3c2)cc1 | < 20 | 34 | –
10 | Cc1cc(C(=O)NCc2ccc3cc(C(=O)NO)sc3c2F)oc1C | 21 | 59 | 470

More lines, main results first:

Row | inhibition [2] [%] | inhibition [3] [%] | Structure (SMILES) | IC50 [1] [nM]
11 | < 20 | 56 | COc1ccccc1C(=O)NCc1ccc2cc(C(=O)NO)sc2c1F | 1200
12 | < 20 | 48 | O=C(NO)c1cc2ccc(CN(CCO)Cc3ccccc3)c(F)c2s1 | 800
13 | 23 | 67 | COCc1ccc(C(=O)NCc2ccc3cc(C(=O)NO)sc3c2F)o1 | 310
14 | 39 | 78 | COc1ccc(C(=O)NCc2ccc3cc(C(=O)NO)sc3c2F)cc1 | 50
15 | < 20 | 61 | CN(C)c1ccc(C(=O)NCc2ccc3cc(C(=O)NO)sc3c2F)cc1 | 60
16 | 24 | 64 | O=C(NCc1ccc2cc(C(=O)NO)sc2c1F)c1ccccc1 | 980
17 | 39 | 78 | O=C(NCc1ccc2cc(C(=O)NO)sc2c1F)c1ccco1 | 90
18 | 45 | 76 | O=C(NCc1ccc2cc(C(=O)NO)sc2c1F)c1ccc[nH]1 | 300
19 | 41 | 80 | Cc1ccc(C(=O)NCc2ccc3cc(C(=O)NO)sc3c2F)s1 | 120
20 | < 20 | 45 | O=C(NO)c1cc2ccc(CN3CCc4ccccc4C3)c(F)c2s1 | 3000
